From patent US11236084B2, “Substituted azaindoline derivatives as NIK inhibitors” (Janssen Pharmaceutica NV, priority 2017, dated 2022)

What was measured:
[1] = biological target: recombinant human NF-kappaB-inducing kinase (NIK/MAP3K14) (Homo sapiens, UniProt Q99558); experiment: Biological Assay B: inhibition of auto-phosphorylation of recombinant human NIK/MAP3K14 (AlphaScreen), performed at 2 locations; assay type: biochemical; details: location 1; NIK auto-phosphorylation, AlphaScreen; averaged values; read-out: Assay B location 1 IC50
Procedure, shortened: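 GST-tagged NIK (0.2 nM) auto-phosphorylation with 25 microM ATP in 50 mM Tris pH 7.5, 5 mM MgCl2, 1% DMSO, 1 h at 25° C. Anti-phospho-IKK Ser176/180 AlphaScreen readout; blank-subtracted IC50 from sigmoidal fit. Run at two sites.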

[2] = system: P-IKKα levels in L363 (NIK translocated multiple myeloma) cells; experiment: Biological Assay C: effect of compounds on P-IKKα levels in L363 (NIK translocated multiple myeloma) cells, performed at 2 locations; assay type: cell-based, human; details: location 1; P-IKKα levels in L363 cells, 2 hr treatment; averaged values; read-out: Assay C location 1 IC50
Procedure, shortened: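 Human L363 cells were primed 24 h with recombinant human BAFF, then treated 2 h with compound (8-point 1:3 dilutions, 1% DMSO) at 37 °C. IC50 came from a sigmoidal fit of % inhibition versus log concentration, determined at two sites.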

recombinant human NF-kappaB-inducing kinase (NIK/MAP3K14), sequence (Q99558 whole entry): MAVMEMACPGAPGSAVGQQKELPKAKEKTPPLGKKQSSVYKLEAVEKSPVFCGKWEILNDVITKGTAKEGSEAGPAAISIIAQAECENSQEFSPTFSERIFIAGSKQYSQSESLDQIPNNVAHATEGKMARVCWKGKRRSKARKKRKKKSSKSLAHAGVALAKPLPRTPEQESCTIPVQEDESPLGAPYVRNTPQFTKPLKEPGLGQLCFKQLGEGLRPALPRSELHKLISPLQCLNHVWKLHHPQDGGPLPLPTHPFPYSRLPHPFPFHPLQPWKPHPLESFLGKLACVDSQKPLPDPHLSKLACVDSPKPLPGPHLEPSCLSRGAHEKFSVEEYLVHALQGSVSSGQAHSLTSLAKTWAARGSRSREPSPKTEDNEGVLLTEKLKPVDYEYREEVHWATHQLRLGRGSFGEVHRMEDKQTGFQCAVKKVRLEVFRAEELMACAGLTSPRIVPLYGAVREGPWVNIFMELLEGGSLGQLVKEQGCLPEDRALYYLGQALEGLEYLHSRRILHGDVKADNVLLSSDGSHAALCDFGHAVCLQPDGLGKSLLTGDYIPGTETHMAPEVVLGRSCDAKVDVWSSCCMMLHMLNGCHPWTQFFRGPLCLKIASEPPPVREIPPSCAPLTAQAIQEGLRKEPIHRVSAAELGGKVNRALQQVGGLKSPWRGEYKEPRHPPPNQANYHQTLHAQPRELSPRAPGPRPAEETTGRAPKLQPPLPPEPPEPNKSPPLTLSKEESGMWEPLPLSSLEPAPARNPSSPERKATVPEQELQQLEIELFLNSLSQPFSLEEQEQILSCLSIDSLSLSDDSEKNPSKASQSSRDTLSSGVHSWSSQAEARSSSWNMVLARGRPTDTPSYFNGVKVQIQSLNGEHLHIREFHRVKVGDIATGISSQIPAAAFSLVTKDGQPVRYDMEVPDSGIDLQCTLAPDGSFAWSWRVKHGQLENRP

| SMILES | melting point | IC50 [1] | IC50 [2] |
| --- | --- | --- | --- |
| COc1cc(N2CCC(O)CC2)c(Cl)cc1Nc1nccc(-c2cnc3c(c2)C(C)(CO)CN3)n1 (single isomer, unassigned) [Compound 16] | > 260 °C | 3.2 nM | 19.1 nM |
| COc1cc(C(=O)NC2CCOCC2)ccc1Nc1ncc(F)c(-c2cnc3c(c2)C(C)(CO)CN3)n1 (single isomer, unassigned) [Compound 349] | > 250 °C | 3.6 nM | – |
| COc1ccc(Cl)cc1Nc1nccc(-c2cnc3c(c2)C(C)(CO)CN3)n1 (stereo not drawn) [Compound 354] | 236 °C | 3 nM | – |
| COc1cc(N2CC3(CCOCC3)C2)c(Cl)cc1Nc1ncc(Cl)c(-c2cnc3c(c2)C(C)(CO)CN3)n1 (single isomer, unassigned) [Compound 347] | > 250 °C | 144 nM | – |
| Cc1ccc(Cl)cc1Nc1nccc(-c2cnc3c(c2)C(C)(CO)CN3)n1 (stereo not drawn) [Compound 355] | 221 °C | 2.5 nM | – |
| COc1cc(C(=O)NC2CCOCC2)ccc1Nc1ncc(Cl)c(-c2cnc3c(c2)C(C)(CO)CN3)n1 (single isomer, unassigned) [Compound 350] | > 250 °C | 295 nM | – |
| COc1ccc(Cl)cc1Nc1nccc(-c2cnc3c(c2)C(C)(C)CN3)n1 [Compound 353] | 210 °C | 72.4 nM | – |
